*1 amine or outer side, *2 acyl side, *3 side chain or, on linkers, in order; H or OH if unused. Where a SMILES comes first, the peptide text is derived from it. Bridges are numbered along the chain shown (N, C = ends). [ ]: non-standard residue; d: D form. The star is where a group is joined. C20 diacid = O=C(O)CCCCCCCCCCCCCCCCCCC(=O)*; γGlu = O=C(O)[C@H](CCC(=O)[*:2])N[*:1]; Hyp = O=C(O)[C@@H]1C[C@@H](O)CN1; NMeI = CC[C@H](C)[C@H](NC)C(=O)O; Sar = CNCC(=O)O
Tests used:
[1] = target: T1, human amylin receptor 3 (hAMYR3), hCTR2 co-expressed with hRAMP3 (Homo sapiens, UniProt O60896+P30988); assay: hAMYR3 cAMP assay (AlphaScreen) in COS7 cells; type: cell-based; conditions: cAMP induction, COS7 cells expressing hAMYR3; Table 1; read-out: hAMYR3 EC50
T1 construct: expressed in transfected cells
T1 sequence (P30988 25-474): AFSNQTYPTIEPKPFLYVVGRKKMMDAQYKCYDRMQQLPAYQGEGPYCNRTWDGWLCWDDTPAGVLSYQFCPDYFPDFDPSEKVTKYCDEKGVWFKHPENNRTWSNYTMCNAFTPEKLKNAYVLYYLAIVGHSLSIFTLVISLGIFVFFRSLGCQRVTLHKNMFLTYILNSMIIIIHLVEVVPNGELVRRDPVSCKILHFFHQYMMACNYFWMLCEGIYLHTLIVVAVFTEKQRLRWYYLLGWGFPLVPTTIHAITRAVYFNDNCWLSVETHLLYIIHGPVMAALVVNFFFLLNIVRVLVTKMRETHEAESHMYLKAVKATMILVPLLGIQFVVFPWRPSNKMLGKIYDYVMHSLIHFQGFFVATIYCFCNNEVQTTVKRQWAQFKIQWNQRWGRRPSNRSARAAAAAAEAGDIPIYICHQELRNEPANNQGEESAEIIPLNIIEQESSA
T1 sequence (O60896 24-148 partner): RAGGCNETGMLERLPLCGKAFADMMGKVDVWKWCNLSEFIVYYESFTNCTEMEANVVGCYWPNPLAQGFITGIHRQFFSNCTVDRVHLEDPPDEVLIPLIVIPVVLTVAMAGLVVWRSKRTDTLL
Source text: The cell line COS7, originating from African Green Monkey kidney fibroblast cells, was used for establishment of the stable cell lines described below. The COS7 cellular background was used due to it being RAMP naïve, and as such it provides the best available system for testing of the monomeric hCTR and different heterodimeric amylin receptor subtypes functionally generated by introduction of the individual RAMPs.
A cell line expressing the human amylin receptor 3 (hAMYR3) was generated in the COS7 cellular background as stable clones. In brief, hCTR2 (GI:4502547) and hRAMP3 (GI:118572586) were amplified by PCR using primers encoding terminal restriction sites for subcloning. The 5′-end primers additionally encoded a near Kozak consensus sequence to ensure efficient translation. The fidelity of the DNA encoding the receptor was confirmed by DNA sequencing. The PCR products encoding the receptor were subcloned into a proprietary tri-cistronic mammalian expression vector with RAMP3, hCTR2 and neomycin (G418) resistance marker. The mammalian expression vector encoding the receptor was transfected into COS7 cells by a standard liposome transfection method. 48 hours post-transfection, cells were seeded for limited dilution cloning and selected with 1 mg/ml G418 in the culture medium. After 3 weeks, surviving colonies of hAMY3R-expressing cells were picked, propagated and tested in the amylin efficacy assay as described in Example 3 below. The functional generation of the amylin receptor phenotype was verified in the efficacy assay by a left-shifted efficacy response to amylin relative to monomeric calcitonin receptor, and one hAMYR3-expressing clone was chosen for compound profiling.
In vitro activity of test peptides at the hCTR2 and hAMYR3 receptors was assessed by measuring the induction of cAMP following stimulation of the receptor using the AlphaScreen® cAMP Assay kit from Perkin-Elmer.
Briefly, COS7 cells expressing hCTR2 (see Example 2, above) were seeded at 30-40,000 cells per well in 96-well microtiter plates coated with 0.01% poly-L-lysine, and grown for 1 day in culture in 100 μl growth medium [DMEM, 10% FCS, Penicillin (100 IU/ml), Streptomycin (100 μg/ml)]. On the day of analysis, growth medium was removed and the cells were washed once with 200 μl Tyrode buffer [Tyrode's Salts (9.6 g/I), 10 mM HEPES, pH 7.4]. Cells were incubated in 100 μl Tyrode buffer containing increasing concentrations of test peptides, 100 µM IBMX and 0.1% casein for 15 min at 37° C. The reaction was stopped by carefully decanting off the compound/buffer medium and replacing it with lysis/detection buffer (80 μl 0.1% w/v BSA, 5 mM HEPES, 0.3% v/v Tween-20 in deionized water). After incubation at room temperature for 10 min., the cAMP content of the resulting cell lysate was estimated according to the AlphaScreen® cAMP Assay manufacturer's instructions. EC50 values were estimated by computer-aided curve fitting using the 4-parameter logistic (4PL) non-linear model.

[2] = Assessment of physical stability (Thioflavin T fibrillation); type: physicochemical; design: key: FND = fibrillation not detected; FD = fibrillation detected; conditions: 1 mg/ml, 40° C., ThT; for Fibrillation pH 4.0 (Ac): 50 mM acetate buffer pH 4.0, 96 hours; for Fibrillation pH 7.0 (His): 50 mM histidine buffer pH 7.0, 96 hours; for Fibrillation pH 7.0 (Phos.): 50 mM phosphate buffer pH 7.0, 96 hours
How it was run: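 1 mg/ml peptide with 40 μM ThT in 50 mM phosphate pH 7.0, 50 mM histidine pH 7.0 or 50 mM acetate pH 4.0, in triplicate. Fluorescence read every 10 min after 300 s agitation over 96 h at 40 °C. Lag-time (h) is the intersection of linear fits to stable and growth phases.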

[3] = target: T2, human calcitonin receptor (hCTR2) (Homo sapiens, UniProt P30988); assay: hCTR2 cAMP assay (AlphaScreen) in COS7 cells; type: cell-based; conditions: cAMP induction, COS7 cells expressing hCTR2; Table 1; read-out: hCTR2 EC50
T2 construct: expressed in transfected cells
T2 sequence (P30988 25-474): T1 sequence (P30988 25-474)
How it was run: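 Stable hCTR2 clone in RAMP-naïve COS7 cells stimulated 15 min at 37 °C with increasing peptide concentrations in Tyrode buffer pH 7.4 containing IBMX and 0.1% casein. cAMP in lysates measured by AlphaScreen; EC50 from 4-parameter logistic fit.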

[4] = Assessment of chemical stability (RP-HPLC normalized purity); type: physicochemical; conditions: 7 days, 40° C., Table 1
How it was run: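 Peptides at 0.2 mg/ml in water adjusted to pH 4, 6, 7.5 or 9, incubated at 40° C for 7 days. Main-peak area-% by RP-HPLC (C8 ammonium formate or C18 TFA gradient, UV 220 nm), normalized to T=0 as 100.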

| EC50 [1] [nM] | Fibrillation pH 4.0 (Ac) [2] | Fibrillation pH 7.0 (His) [2] | Fibrillation pH 7.0 (Phos.) [2] | EC50 [3] [nM] | Normalized purity after 7 days, 40° C., pH 4 ([4]; pH 4, 0.2 mg/ml) | Normalized purity after 7 days, 40° C., pH 6 ([4]; pH 6, 0.2 mg/ml) | Normalized purity after 7 days, 40° C., pH 7.5 ([4]; pH 7.5, 0.2 mg/ml) | Normalized purity after 7 days, 40° C., pH 9 ([4]; pH 9, 0.2 mg/ml) | Compound |
| --- | --- | --- | --- | --- | --- | --- | --- | --- | --- |
| 0.59 | FND | FD | FND | – | – | – | – | – | CC[C@H](C)[C@@H](C(=O)N[C@@H](CC(C)C)C(=O)N[C@@H](CO)C(=O)N[C@@H](CO)C(=O)N[C@H](C(=O)N[C@@H](CCC(=O)O)C(=O)N[C@H](C(=O)NCC(=O)N[C@@H](CO)C(=O)N[C@@H](CCC(=O)O)C(=O)N[C@H](C(=O)N1CCC[C@H]1C(N)=O)[C@@H](C)O)C(C)C)[C@@H](C)O)N(C)C(=O)[C@H](C)NC(=O)CN(C)C(=O)[C@H](Cc1ccccc1)NC(=O)[C@H](CO)NC(=O)[C@H](CO)NC(=O)[C@H](CCCNC(=N)N)NC(=O)[C@@H](NC(=O)[C@H](CC(C)C)NC(=O)[C@H](Cc1ccccc1)NC(=O)[C@H](Cc1c[nH]cn1)NC(=O)[C@H](C)NC(=O)[C@H](CC(C)C)NC(=O)[C@H](CCCNC(=N)N)NC(=O)[C@H](CCC(=O)O)NC(=O)[C@@H](NC(=O)[C@H](C)NC(=O)[C@@H]1CSSC[C@H](NC(=O)[C@H](CCCNC(=N)N)NC(=O)CC[C@H](NC(=O)CCCCCCCCCCCCCCCCCCC(=O)O)C(=O)O)C(=O)NCC(=O)N[C@@H]([C@@H](C)O)C(=O)N[C@@H](C)C(=O)N[C@@H]([C@@H](C)O)C(=O)N1)[C@@H](C)O)C(C)C [Compound 22, [19CD]-isoGlu-R-C( )-GTAT-C( )-ATERLAHFLVRSSF-Gly(Me)-A-Ile(Me)-LSSTEVGSETP-NH2] ({C20 diacid-γGlu}-RCGTATCATERLAHFLVRSSF[Sar]A[NMeI]LSSTEVGSETP-NH2; disulfide 2-7) |
| 0.19 | – | – | – | 0.085 | – | – | – | – | CC[C@H](C)[C@@H](C(=O)N[C@@H](CC(C)C)C(=O)N[C@@H](CO)C(=O)N[C@@H](CO)C(=O)N[C@H](C(=O)N[C@@H](CCC(=O)O)C(=O)N[C@H](C(=O)NCC(=O)N[C@@H](CO)C(=O)N[C@@H](CCC(=O)O)C(=O)N[C@H](C(=O)N1CCC[C@H]1C(N)=O)[C@@H](C)O)C(C)C)[C@@H](C)O)N(C)C(=O)[C@H](C)NC(=O)CN(C)C(=O)[C@H](Cc1ccccc1)NC(=O)[C@H](CO)NC(=O)[C@H](CO)NC(=O)[C@H](CCCNC(=N)N)NC(=O)[C@@H](NC(=O)[C@H](CC(C)C)NC(=O)[C@H](Cc1ccccc1)NC(=O)[C@H](Cc1c[nH]cn1)NC(=O)[C@H](C)NC(=O)[C@H](CC(C)C)NC(=O)[C@H](CCCNC(=N)N)NC(=O)[C@H](CCC(N)=O)NC(=O)[C@@H](NC(=O)[C@H](C)NC(=O)[C@@H]1CSSC[C@H](NC(=O)[C@H](CCCNC(=N)N)NC(=O)CC[C@H](NC(=O)CCCCCCCCCCCCCCCCCCC(=O)O)C(=O)O)C(=O)N[C@@H](CC(N)=O)C(=O)N[C@@H]([C@@H](C)O)C(=O)N[C@@H](C)C(=O)N[C@@H]([C@@H](C)O)C(=O)N1)[C@@H](C)O)C(C)C [Compound 24, [19CD]-isoGlu-R-C( )-NTAT-C( )-ATQRLAHFLVRSSF-Gly(Me)-A-Ile(Me)-LSSTEVGSETP-NH2] ({C20 diacid-γGlu}-RCNTATCATQRLAHFLVRSSF[Sar]A[NMeI]LSSTEVGSETP-NH2; disulfide 2-7) |
| 0.34 | – | – | – | – | – | – | – | – | CC[C@H](C)[C@@H](C(=O)N[C@@H](CC(C)C)C(=O)N[C@@H](CO)C(=O)N[C@@H](CO)C(=O)N[C@H](C(=O)N[C@@H](CCC(=O)O)C(=O)N[C@H](C(=O)NCC(=O)N[C@@H](CO)C(=O)N[C@@H](Cc1ccccc1)C(=O)N[C@H](C(=O)N1C[C@H](O)C[C@H]1C(N)=O)[C@@H](C)O)C(C)C)[C@@H](C)O)N(C)C(=O)[C@H](C)NC(=O)CN(C)C(=O)[C@H](Cc1ccccc1)NC(=O)[C@H](CO)NC(=O)[C@H](CO)NC(=O)[C@H](CCCNC(=N)N)NC(=O)[C@@H](NC(=O)[C@H](CC(C)C)NC(=O)[C@H](Cc1ccccc1)NC(=O)[C@H](CC(=O)O)NC(=O)[C@H](C)NC(=O)[C@H](CC(C)C)NC(=O)[C@H](CCCNC(=N)N)NC(=O)[C@H](CCC(=O)O)NC(=O)[C@@H](NC(=O)[C@H](C)NC(=O)[C@@H]1CSSC[C@H](NC(=O)[C@H](CCCNC(=N)N)NC(=O)CC[C@H](NC(=O)CCCCCCCCCCCCCCCCCCC(=O)O)C(=O)O)C(=O)NCC(=O)N[C@@H]([C@@H](C)O)C(=O)N[C@@H](C)C(=O)N[C@@H]([C@@H](C)O)C(=O)N1)[C@@H](C)O)[C@@H](C)O [Compound 42, [19CD]-isoGlu-R-C( )-GTAT-C( )-ATERLADFLTRSSF-Gly(Me)-A-Ile(Me)-LSSTEVGSFT-Hyp-NH2] ({C20 diacid-γGlu}-RCGTATCATERLADFLTRSSF[Sar]A[NMeI]LSSTEVGSFT[Hyp]-NH2; disulfide 2-7) |
| 0.26 | FND | FND | FND | – | A (A = >90%) | A (A = >90%) | A (A = >90%) | A (A = >90%) | CC[C@H](C)[C@@H](C(=O)N[C@@H](CC(C)C)C(=O)N[C@@H](CO)C(=O)N[C@@H](CO)C(=O)N[C@H](C(=O)N[C@@H](CCC(=O)O)C(=O)N[C@H](C(=O)NCC(=O)N[C@@H](CO)C(=O)N[C@H](C(=O)N[C@H](C(=O)N1C[C@H](O)C[C@H]1C(N)=O)[C@@H](C)O)[C@@H](C)O)C(C)C)[C@@H](C)O)N(C)C(=O)[C@H](C)NC(=O)CN(C)C(=O)[C@H](Cc1ccccc1)NC(=O)[C@H](CO)NC(=O)[C@H](CO)NC(=O)[C@H](CCCNC(=N)N)NC(=O)[C@@H](NC(=O)[C@H](CC(C)C)NC(=O)[C@H](Cc1ccccc1)NC(=O)[C@H](Cc1c[nH]cn1)NC(=O)[C@H](C)NC(=O)[C@H](CC(C)C)NC(=O)[C@H](CCCNC(=N)N)NC(=O)[C@H](CCC(=O)O)NC(=O)[C@@H](NC(=O)[C@H](C)NC(=O)[C@@H]1CSSC[C@H](NC(=O)[C@H](CCCNC(=N)N)NC(=O)CC[C@H](NC(=O)CCCCCCCCCCCCCCCCCCC(=O)O)C(=O)O)C(=O)NCC(=O)N[C@@H]([C@@H](C)O)C(=O)N[C@@H](C)C(=O)N[C@@H]([C@@H](C)O)C(=O)N1)[C@@H](C)O)[C@@H](C)O [Compound 48, [19CD]-isoGlu-R-C( )-GTAT-C( )-ATERLAHFLTRSSF-Gly(Me)-A-Ile(Me)-LSSTEVGSTT-Hyp-NH2] ({C20 diacid-γGlu}-RCGTATCATERLAHFLTRSSF[Sar]A[NMeI]LSSTEVGSTT[Hyp]-NH2; disulfide 2-7) |

Reference: US20210115104A1, “AMYLIN ANALOGUES” (Zealand Pharma A/S, priority 2015, published 2021)
